This is an account of results in US10577329B2, “Fused-bicyclic aryl quinolinone derivatives as mutant-isocitrate dehydrogenase inhibitors” (FORMA Therapeutics, Inc., priority 2015, dated 2020).

Read-outs that look alike come from different tables or passages of the source. Some results are limits rather than exact numbers.

Assay [1] deals with HCT116 isogenic IDH1-R132H mutant cells. The experiment in a line: Cellular 2-HG assay using HCT116 mutant IDH1-R132H cells. It counts as cell-based. The conditions noted are these: Homo sapiens, read-out: HCT116 IDH1 R132H IC50. On the procedure:
(§1) HCT116 isogenic IDH1-R132H and IDH1-R132C mutant cells were cultured in growth media (McCoy's 5A, 10% fetal bovine serum, 1× antibiotic-antimycotic solution and 0.3 mg/mL G418) in 5% CO2 in an incubator at 37° C. To prepare the assay, cells were trypsinized and resuspended in assay media (McCoy's 5A with no L-glutamine, 10% fetal bovine serum, 1× antibiotic-antimycotic solution and 0.3 mg/mL G418). An aliquot of 10,000 cells/100 μL was transferred to each well of a clear 96-well tissue culture plate. The cells were incubated in 5% CO2 at 37° C. in an incubator overnight to allow for proper cell attachment. An aliquot of 50 μL of compound containing assay media were then added to each well and the assay plate was kept in 5% CO2 at 37° C. in an incubator for 24 hours. The media was then removed from each well and 150 μL of a methanol/water mixture (80/20 v/v) was added to each well. The plates were kept at −80° C. freezer overnight to allow for complete cell lysis. An aliquot of 125 μL of extracted supernatant was analyzed by RapidFire high-throughout-mass spectrometry (Agilent) to determine the cellular 2-HG level. The IC50 of a given compound was calculated by fitting the dose response curve of cellular 2-HG inhibition at a given concentration with the four parameter logistic equation

The test system of assay [2] is HCT116 isogenic IDH1-R132C mutant cells. Put plainly: Cellular 2-HG assay using HCT116 mutant IDH1-R132C cells. The format is cell-based. The conditions noted are these: Homo sapiens, read-out: HCT116 IDH1 R132C IC50. On the procedure: as §1
Assay [3] has as its target IDH1-R132H recombinant protein (Homo sapiens, UniProt O75874, R132H). Put plainly: IDH1-R132H enzymatic assay (NADPH consumption, diaphorase/resazurin readout). The conditions noted are these: 30 nM IDH1-R132H, inhibition of NADPH consumption; read-out: Enzyme IDH1 R132H IC50. It counts as biochemical. The method, then:
(§2) Example 34—IDH1-R132H and IDH1-R132C Enzymatic Assay
(§3) Assays were performed in a 384-well black plate. An aliquot of 250 nL of compound was incubated with 10 μL of 30 nM IDH1-R132H or 10 nM IDH1-R132C recombinant protein in assay buffer (50 mM Tris pH=7.5, 150 mM NaCl, 5 mM MgCl2, 0.1% (w/v) Bovine Serum Albumin, and 0.01% Triton X-100) in each well at 25° C. for 15 minutes. After the plate was centrifuged briefly, an aliquot of 10 μL of 2 mM α-ketoglutarate and 20 μM NADPH solution prepared in assay buffer was then added to each well and the reaction was maintained at 25° C. for 45 minutes. An aliquot of 10 μL of diaphorase solution (0.15 U/mL diaphorase and 30 μM Resazurin in assay buffer) was added to each well. The plate was maintained at 25° C. for 15 minutes and then read on a plate reader with excitation and emission wavelengths at 535 nm and 590 nm, respectively. The IC50 of a given compound was calculated by fitting the dose response curve of inhibition of NADPH consumption at a given concentration with the four parameter logistic equation.
On the technique in general: The colour change of resazurin is a common sign of viable cells or microbes.

Assay [4] has as its target IDH1-R132C recombinant protein (Homo sapiens, UniProt O75874, R132C). The experiment in a line: IDH1-R132C enzymatic assay (NADPH consumption, diaphorase/resazurin readout). The format is biochemical. The conditions noted are these: 10 nM IDH1-R132C, inhibition of NADPH consumption; read-out: Enzyme IDH1 R132C IC50. The method, then:
as §2, §3

Where [5] appears, read: HCT-116, cellular 2-HG inhibition, 24 hours, RapidFire mass spectrometry.

Sequence of IDH1-R132C recombinant protein (O75874 whole entry R132C): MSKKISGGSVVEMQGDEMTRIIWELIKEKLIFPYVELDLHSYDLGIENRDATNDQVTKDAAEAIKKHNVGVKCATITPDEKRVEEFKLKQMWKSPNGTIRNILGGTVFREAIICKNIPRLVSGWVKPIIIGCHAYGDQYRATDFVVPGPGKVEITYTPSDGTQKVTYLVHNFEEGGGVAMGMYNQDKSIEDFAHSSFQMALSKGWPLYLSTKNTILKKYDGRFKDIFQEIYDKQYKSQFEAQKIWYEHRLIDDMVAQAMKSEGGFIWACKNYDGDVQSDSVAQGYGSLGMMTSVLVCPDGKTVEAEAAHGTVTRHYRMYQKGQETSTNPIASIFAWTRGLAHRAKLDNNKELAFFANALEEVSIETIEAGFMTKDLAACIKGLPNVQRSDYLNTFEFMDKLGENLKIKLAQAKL
Sequence of IDH1-R132H recombinant protein (O75874 whole entry R132H): as the sequence (O75874 whole entry R132C) above, with C132H counted along it

Regarding `C[C@H](Nc1ncc2oc(=O)n(C)c2n1)c1cc2cc(Cl)ccc2[nH]c1=O` [Compound I-57, 6-chloro-3-[(1S)-1-({3-methyl-2-oxo-2H,3H-[1,3]oxazolo[4,5-d]pyrimidin-5-yl}amino)ethyl]-1,2-dihydroquinolin-2-one], the IC50 (usually the concentration that inhibits the measured activity by half) was 100 to 1000 nM in assay [1] (HCT-116, 24 h) and 100 to 1000 nM in assay [2] (HCT-116, 24 h).
On to `C[C@H](Nc1ncc2[nH]c(=O)n(C)c2n1)c1cc2cc(Cl)ccc2[nH]c1=O` [Compound I-58, 6-chloro-3-[(1S)-1-[(9-methyl-8-oxo-8,9-dihydro-7H-purin-2-yl)amino]ethyl]-1,2-dihydroquinolin-2-one], for which the IC50 in assay [1] (HCT-116, 24 h) lay within 100 to 1000 nM; in assay [2] (HCT-116, 24 h) it was 1000 to 10000 nM.
`COc1cc2[nH]c(=O)c(C(C)Nc3ncc4c(n3)N(C)C(=O)OC4)cc2cc1Cl` (racemic) [Compound I-50, 6-chloro-7-methoxy-3-[1-({1-methyl-2-oxo-1H,2H,4H-pyrimido[4,5-d][1,3]oxazin-7-yl}amino)ethyl]-1,2-dihydroquinolin-2-one]: the IC50 is below 100 nM in assay [1] (HCT-116, 24 h); below 100 nM in assay [3]; below 100 nM in assay [4]; below 100 nM in assay [2] (HCT-116, 24 h).
With `COc1cc2[nH]c(=O)c([C@H](C)Nc3ncc4c(n3)N(C)C(=O)OC4)cc2cc1Cl` [Compound I-51, 6-chloro-7-methoxy-3-[(1S)-1-({1-methyl-2-oxo-1H,2H,4H-pyrimido[4,5-d][1,3]oxazin-7-yl}amino)ethyl]-1,2-dihydroquinolin-2-one], the half-inhibitory concentration (IC50) is below 100 nM in assay [1] (HCT-116, 24 h) and below 100 nM in assay [2] (HCT-116, 24 h).
For the compound `CC(C)Cn1c(=O)oc2cnc(N[C@@H](C)c3cc4cc(Cl)ccc4[nH]c3=O)nc21` [Compound I-55, 6-chloro-3-[(1S)-1-{[3-(2-methylpropyl)-2-oxo-2H,3H-[1,3]oxazolo[4,5-d]pyrimidin-5-yl]amino}ethyl]-1,2-dihydroquinolin-2-one], the half-inhibitory concentration (IC50) in assay [1] (setting [5]) was in the range of 100 to 1000 nM; in assay [2] (setting [5]), 1000 to 10000 nM.
For `C[C@H](Nc1ncc2cn[nH]c2n1)c1cc2cc(Cl)ccc2[nH]c1=O` [Compound I-45, 6-chloro-3-[(1S)-1-({1H-pyrazolo[3,4-d]pyrimidin-6-yl}amino)ethyl]-1,2-dihydroquinolin-2-one], the IC50 was in the range of 100 to 1000 nM in assay [1] (HCT-116, 24 h) and 100 to 1000 nM in assay [2] (HCT-116, 24 h).
As for `C[C@H](Nc1ncc2c(n1)N(C)C(=O)OC2)c1cc2cc(Cl)ccc2[nH]c1=O` [Compound I-47, 6-chloro-3-[(1S)-1-({1-methyl-2-oxo-1H,2H,4H-pyrimido[4,5-d][1,3]oxazin-7-yl}amino)ethyl]-1,2-dihydroquinolin-2-one], the IC50 in assay [1] (setting [5]) and in assay [2] (setting [5]) was below 100 nM each time.
With `C[C@H](Nc1ncc2c(n1)NC(=O)C2)c1cc2cc(Cl)ccc2[nH]c1=O` [Compound I-60, 6-chloro-3-[(1S)-1-({6-oxo-5H,6H,7H-pyrrolo[2,3-d]pyrimidin-2-yl}amino)ethyl]-1,2-dihydroquinolin-2-one], the figures for the IC50 in assay [1] (setting [5]) and in assay [2] (setting [5]) were 100 to 1000 nM and 1000 to 10000 nM, respectively.
For the compound `C[C@H](Nc1ncc2c(n1)N(C)C(=O)OC2)c1cc2cc(Cl)c(OCc3ccccn3)cc2[nH]c1=O` [Compound I-48, 6-chloro-3-[(1S)-1-({1-methyl-2-oxo-1H,2H,4H-pyrimido[4,5-d][1,3]oxazin-7-yl}amino)ethyl]-7-(pyridin-2-ylmethoxy)-1,2-dihydroquinolin-2-one], the half-maximal inhibitory concentration (IC50) in assay [1] (setting [5]) and in assay [2] (setting [5]) was below 100 nM in each case.
As to `C[C@H](Nc1ncc2oc(=O)[nH]c2n1)c1cc2cc(Cl)ccc2[nH]c1=O` [Compound I-56, 6-chloro-3-[(1S)-1-({2-oxo-2H,3H-[1,3]oxazolo[4,5-d]pyrimidin-5-yl}amino)ethyl]-1,2-dihydroquinolin-2-one], the IC50 in assay [1] (HCT-116, 24 h) is 1000 to 10000 nM; in assay [2] (HCT-116, 24 h), above 10000 nM.
In the case of `C[C@H](Nc1ncc2c(n1)N(C)C(=O)C2)c1cc2cc(Cl)ccc2[nH]c1=O` [Compound I-61, 6-chloro-3-[(1S)-1-({7-methyl-6-oxo-5H,6H,7H-pyrrolo[2,3-d]pyrimidin-2-yl}amino)ethyl]-1,2-dihydroquinolin-2-one], the IC50 in assay [1] (setting [5]) and in assay [2] (setting [5]) was 100 to 1000 nM throughout.
`C[C@H](Nc1ncc2c(n1)NC(=O)OC2)c1cc2cc(Cl)ccc2[nH]c1=O` [Compound I-49, 6-chloro-3-[(1S)-1-({2-oxo-1H,2H,4H-pyrimido[4,5-d][1,3]oxazin-7-yl}amino)ethyl]-1,2-dihydroquinolin-2-one]: the IC50 in assay [1] (setting [5]) is below 100 nM; in assay [2] (setting [5]), 100 to 1000 nM.
